Measured values reported in patent US20080107625A1, “Inhibitors of Hepatitis C Virus” (Bristol-Myers Squibb Company, priority 2006, published 2008).

Legend:
Type in all cases: biochemical
[1] = molecular target: T1, HCV NS3/4A protease complex, H77 strain (Hepatitis C virus genotype 1a, UniProt P27958, C1454S/C1711G); experiment: FRET peptide assay to monitor HCV NS3/4A proteolytic activity (H77 strain); details: H77 strain (1a genotype)
T1 construct: recombinant HCV NS3/4A protease complex (amino acids 1027 to 1711) for these strains; His-tag (inferred from pET21b vector and Ni-NTA purification); made in house; host or cells: Escherichia coli BL21 (DE3), pET21b
T1 sequence (P27958 1027-1711 C1454S/C1711G, one chain of several): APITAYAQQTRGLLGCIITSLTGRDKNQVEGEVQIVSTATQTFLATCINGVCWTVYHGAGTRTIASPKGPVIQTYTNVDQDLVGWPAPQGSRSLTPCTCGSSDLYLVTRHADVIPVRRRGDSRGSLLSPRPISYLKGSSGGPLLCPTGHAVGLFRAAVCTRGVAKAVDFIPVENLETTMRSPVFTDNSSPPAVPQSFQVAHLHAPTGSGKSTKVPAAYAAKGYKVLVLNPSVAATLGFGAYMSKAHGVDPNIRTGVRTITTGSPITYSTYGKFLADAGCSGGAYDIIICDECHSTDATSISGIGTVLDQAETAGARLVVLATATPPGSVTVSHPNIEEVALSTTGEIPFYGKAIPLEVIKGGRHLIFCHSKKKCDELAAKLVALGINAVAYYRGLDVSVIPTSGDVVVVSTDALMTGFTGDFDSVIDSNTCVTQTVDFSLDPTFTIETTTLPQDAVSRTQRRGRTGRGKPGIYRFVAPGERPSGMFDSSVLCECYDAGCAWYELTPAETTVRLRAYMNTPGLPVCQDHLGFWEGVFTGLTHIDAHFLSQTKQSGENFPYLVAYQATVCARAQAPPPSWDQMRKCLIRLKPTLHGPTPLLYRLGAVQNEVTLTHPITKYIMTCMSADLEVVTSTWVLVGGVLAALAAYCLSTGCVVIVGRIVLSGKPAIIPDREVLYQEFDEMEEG
Description: (§1) HCV NS3 protease complexes, derived from the BMS strain, H77 strain or J4L6S strain, were generated, as described below. These purified recombinant proteins were generated for use in a homogeneous assay (see below) to provide an indication of how effective compounds of the present disclosure would be in inhibiting HCV NS3 proteolytic activity.
(§2) The H77 and J4L6S strains were used for production of recombinant NS3/4A protease complexes. DNA encoding the recombinant HCV NS3/4A protease complex (amino acids 1027 to 1711) for these strains were manipulated as described by P. Gallinari et al. (see Gallinari P, Paolini C, Brennan D, Nardi C, Steinkuhler C, De Francesco R. Biochemistry. 38(17):5620-32, (1999)). Briefly, a three-lysine solubilizing tail was added at the 3′-end of the NS4A coding region. The cysteine in the P1 position of the NS4A-NS4B cleavage site (amino acid 1711) was changed to a glycine to avoid the proteolytic cleavage of the lysine tag. Furthermore, a cysteine to serine mutation was introduced by PCR at amino acid position 1454 to prevent the autolytic cleavage in the NS3 helicase domain. […]

[2] = molecular target: T2, HCV NS3/4A protease complex, J4L6S strain (Hepatitis C virus genotype 1b, UniProt O92972, C1454S/C1711G); experiment: FRET peptide assay to monitor HCV NS3/4A proteolytic activity (J4L6S strain); details: J4L6S strain (1b genotype)
T2 construct: recombinant HCV NS3/4A protease complex (amino acids 1027 to 1711) for these strains; His-tag (inferred from pET21b vector and Ni-NTA purification); made in house; host or cells: Escherichia coli BL21 (DE3), pET21b
T2 sequence (O92972 1027-1711 C1454S/C1711G, one chain of several): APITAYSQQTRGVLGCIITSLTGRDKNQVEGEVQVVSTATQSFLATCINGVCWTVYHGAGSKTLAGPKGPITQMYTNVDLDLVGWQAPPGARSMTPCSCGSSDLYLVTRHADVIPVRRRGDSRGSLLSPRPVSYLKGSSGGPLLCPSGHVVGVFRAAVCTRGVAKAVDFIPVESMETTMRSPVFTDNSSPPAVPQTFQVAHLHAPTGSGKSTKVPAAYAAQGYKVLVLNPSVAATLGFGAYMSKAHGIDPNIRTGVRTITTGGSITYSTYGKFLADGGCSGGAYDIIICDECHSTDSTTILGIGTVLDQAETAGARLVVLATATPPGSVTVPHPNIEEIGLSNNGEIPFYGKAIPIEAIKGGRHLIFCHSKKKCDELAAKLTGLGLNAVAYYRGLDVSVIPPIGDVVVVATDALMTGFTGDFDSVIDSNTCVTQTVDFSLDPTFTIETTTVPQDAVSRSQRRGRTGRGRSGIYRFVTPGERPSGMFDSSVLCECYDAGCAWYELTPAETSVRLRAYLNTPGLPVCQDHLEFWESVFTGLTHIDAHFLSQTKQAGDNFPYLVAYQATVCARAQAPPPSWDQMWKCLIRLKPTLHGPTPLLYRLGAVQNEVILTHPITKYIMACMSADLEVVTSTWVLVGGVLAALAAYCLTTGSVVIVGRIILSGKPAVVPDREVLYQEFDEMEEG
Description: as §1, §2

[3] = molecular target: T3, porcine pancreatic elastase (PPE) (Sus scrofa, UniProt P00772); experiment: Specificity assay, pancreatic elastase
T3 construct: purchased Sigma or EMDbiosciences
T3 sequence (P00772 27-266): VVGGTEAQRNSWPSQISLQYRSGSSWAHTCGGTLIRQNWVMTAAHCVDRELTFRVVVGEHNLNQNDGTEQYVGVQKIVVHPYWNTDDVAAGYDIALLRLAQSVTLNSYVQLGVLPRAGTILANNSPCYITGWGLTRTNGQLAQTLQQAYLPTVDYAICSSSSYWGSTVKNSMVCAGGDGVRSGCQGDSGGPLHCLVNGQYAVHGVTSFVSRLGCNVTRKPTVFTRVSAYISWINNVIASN
Method: (§3) The specificities of compounds of the present disclosure were determined against a variety of serine proteases: human neutrophil elastase (HNE), porcine pancreatic elastase (PPE) and human pancreatic chymotrypsin and one cysteine protease: human liver cathepsin B. In all cases, a 96-well plate format protocol using colorimetric p-nitroaniline (pNA) substrate or fluorometric Amino-Methyl-Coumarin (AMC) substrate, specific for each enzyme was used as described previously (PCT Patent Application No. WO 00/09543) with some modifications. All enzymes were purchased from Sigma or EMDbiosciences while the substrates were from Bachem.
(§4) Each pNA assay included a 2 h enzyme-inhibitor pre-incubation at room temperature followed by addition of substrate and hydrolysis to ˜15% conversion as measured on a Spectramax Pro microplate reader. The cathepsin B assay was initiated by adding substrate to a 10 min enzyme-inhibitor pre-incubation at room temperature, and the assay plate measured immediately using the Cytofluor Series 4000. Compound concentrations varied from 100 to 0.4 μM depending on their potency.
(§5) 50 mM Tris(hydroxymethyl)aminomethane hydrochloride (Tris-HCl) pH 8, 0.5 M Sodium Sulfate (Na2SO4), 50 mM NaCl, 0.1 mM EDTA, 3% DMSO, 0.01% Tween-20 with: […]
(§6) The percentage of inhibition was calculated using the formula: [1−((UVinh−UVblank)/(UVctl−UVblank))]×100 […]

[4] = molecular target: T4, human pancreatic chymotrypsin (Homo sapiens, UniProt P17538); experiment: Specificity assay, chymotrypsin
T4 construct: purchased Sigma or EMDbiosciences
T4 sequence (P17538 19-263): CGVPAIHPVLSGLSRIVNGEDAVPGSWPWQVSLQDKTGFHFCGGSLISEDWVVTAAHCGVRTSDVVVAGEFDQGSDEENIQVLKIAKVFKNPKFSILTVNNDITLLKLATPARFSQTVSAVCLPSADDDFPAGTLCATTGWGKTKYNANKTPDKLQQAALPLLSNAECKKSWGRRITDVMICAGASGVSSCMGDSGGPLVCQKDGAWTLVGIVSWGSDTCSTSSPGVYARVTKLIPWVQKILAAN
Method: as §3, §4, §5, §6

SMILES: CC(C)(C)OC(=O)N[C@H]1CN(C2CC2)CCC/C=C\C2C[C@@]2(C(=O)NS(=O)(=O)C2CC2)NC(=O)[C@@H]2C[C@@H](Oc3ccccn3)CN2C1=O (stereo partly shown) [Compound 1]
- IC50 [1]: 18 nM
- IC50 [2]: 12 nM
- IC50 [3]: > 100000 nM
- IC50 [4]: > 100000 nM
